Assay results: US20050282893A1 (priority 2004, published 2005)

Tests used:
[1] = test system: human telomerase; assay: Telomerase activity by improved TRAP in transfected FaDu cells; format: cell-based
Method: Inhibition of telomerase activity in cell lysates and intact cells. The modified Telomeric Repeat Amplification Protocol (TRAP) assay (Gan, et al., Pharm. Res., 18:488-493, 2001) was used to detect telomerase activity in cell lysate. The telomerase activity in intact cells was measured using intracellular TRAP, as follows. Cells (1×10^5) were washed twice with PBS and centrifuged. The cell pellet was resuspended in 100 μl of serum-free RPMI 1640 containing 5 u/ml of Streptolysin O, 2 μM of TS primer, and 50 μM of dNTP, and incubated at room temperature for 5 min. The enzyme streptolysin O was used to increase the cell membrane permeability to the TS primer. Upon entering a cell, the TS primer was elongated by the intracellular telomerase in situ. The elongated TS primer was then isolated from the cells and used as the template for PCR amplification. Then 200 μl of RPMI 1640 medium containing 10% FBS was added to the cells to stop the permeating process. […] The cells were then lyzed and the cell lysates, which contained the already extended TS primer, was directly analyzed by TRAP.
(§1) Effect of hTR antisense on telomere length and telomerase activity. Telomere length (referred to as terminal restriction fragment) was measured using the TALA method. Telomerase activity was measured using the improved TRAP method.

[2] = test system: telomere length in FaDu cells; assay: Telomere length (terminal restriction fragment) by TALA in transfected FaDu cells; format: cell-based, human
From the text: Measurement of telomere length in cultured cells. Two methods were used to measure telomere length. The first method was a solution hybridization based telomere amount and length assay (TALA) (Gan, et al., Pharm. Res., 18:1655-1659, 2001) that measures the mean length of the terminal restriction fragments (TRF). The second method was fluorescence in situ hybridization (FISH) to detect telomere signal and to estimate the approximate length of individual telomere structures at the end of chromosomes. The FISH method is as described in U.S. patent application Ser. No. 09/587,662 and Gan, et al., 2001.
as §1

[3] = test system: FaDu cells; assay: Cell growth of FaDu cells transfected with hTR antisense or sense; format: cell-based, human
From the text: hTR antisense inhibits telomerase. The antisense study consisted of the following steps: (a) construction of a sense and antisense to the RNA portion of the human telomerase (hTR), (b) stable transfection of cells with the hTR antisense (or hTR sense control), and (c) determination of the ability of the hTR antisense to inhibit telomerase activity and induce telomere shortening. The methodologies are detailed in the art, for example, by Mo et al., Cancer Res. 2003.
Transfection procedures. Transfection of the antisense construct used an IPTG-inducible mammalian expression system. The resulting clones were used for experiments.
Effect of hTR antisense on cell growth. Table 2 summarizes the results which show a slower growth rate for the antisense +IPTG cells (i.e., cells that were transfected by hTR antisense and treated with IPTG to induce the expression of […]) compared to cells that had either not been transfected with the antisense, not transfected but treated with IPTG, transfected with the sense and treated with IPTG, or transfected with the antisense but without the IPTG induction (i.e., control, +IPTG, +sense +IPTG, and antisense).

CC(C)S[C@@H]1O[C@H](CO)[C@H](O)[C@H](O)[C@H]1O [+IPTG]
Telomerase activity, % of control [1]: 98.9 % of control | Terminal restriction fragment [2]: 2.91 kb | Doubling time [3]: 23 h
